# Measurements: patent publication US5747545A, “Method of preventing NMDA receptor complex-mediated Neuronal damage” (priority 1995, dated 1998)
# Entries after “also recorded” stand apart in the source; their conditions may differ.
# How the values were obtained:
# [1] = tested on: NMDA receptor (cortical neurons); test: Patch-clamp recording of NMDA-evoked current in cortical neurons; format: cell-based, rat (Sprague-Dawley)
# [2] = tested on: cortical neurons (NMDA receptor-mediated neurotoxicity); test: Neurotoxicity assay: survival of cortical neurons after DTT and NMDA exposure; format: cell-based, rat; conditions: NTG 100 μM (30 μM NMDA, 30 min); SNP 400 μM (75 μM NMDA, 5 min); FIGS. 6A and 6B
# Experimental: To test compounds for their ability to prevent neurotoxicity, neuronal cell death may be assayed as follows. […] The candidate compound is tested by addition (e.g., in a series of concentrations ranging from 0.1 nM-10 mM) after DTT treatment but before NMDA treatment. The candidate compound can be added for minutes, hours, or even days prior to its washout period. […] Neuronal cultures are scored for cell survival after this overnight incubation because NMDA toxicity is often delayed by several hours following NMDA exposure.
# Using the neurotoxicity assay described above, the compounds sodium nitroprusside and nitroglycerin were tested individually for their ability to increase survival of neonatal cortical neurons.
# As shown in FIG. 6A-6D, surviving neurons are expressed as the percentage of viable neurons in the control culture dishes in the same experiment. The concentrations of drugs were as follows: APV (2 mM), NTG (100 μM), SNP (400 μM), DTT (0.5-2 mM), and reduced Hb (500 μM). […] Values are mean ±SEM for experiments run in triplicate on sibling cultures on separate days (total of 32 experiments). Astericks indicate significant difference compared with the value for DTT-NMDA exposure, P<0.05 (ANOVA followed by Scheffe multiple comparison of means.
# [3] = Development of tolerance to systemic effects of NTG in humans; format: in vivo, human
# Source text: Therefore, it is advantageous to induce NTG tolerance by gradually increasing dosage, thus increasing the neuronal protective effect.
# To illustrate the development of systemic tolerance, a human patient could be made tolerant by intravenous administration of NTG within 18-24 hr of continuous infusion (see for example, J. E. Shaffer, B. -A. Han, W. H. Chern, and F. W. Lee, J. Pharmacol. Exper. Therap., 1992;260:286-293; D. C. May, J. J. Popma, Wh. H. Black, S. Scahaffer, H. R. Lee, B. D. Levine, and L. D. Hillis, New Engl. J. Med. 1987;317:805-809; C. M. Newman, J. B. Warren, G. W. Taylor, A. R. Boobis, and D. S. Davis, Br. J. Pharmacol. 1990;99:825-829). Oral, nasal spray, or sublingual NTG could also be used to induce systemic tolerance.
# Another, perhaps easier, method for making humans tolerant within 24 hours to the systemic effects of NTG is to administer nitroglycerin as nitropaste or as a transdermal patch for transdermal delivery, for instance, as follows: 1/2inch every 4 to 6 hours, while monitoring the blood pressure (to see when hypotension subsides from the applied nitropaste). As tolerated (e.g., in the absence of sudden drops in blood pressure), the dose of nitropaste is increased to up to 3 inches with each administration. Under these conditions, tolerance (as evidenced by no effect on systemic blood pressure) will develop in 18-24 hours or less. […]
compound,measurement,setting,value
"O=[N+]([O-])OCC(CO[N+](=O)[O-])O[N+](=O)[O-] [NTG, 1,2,3-propanetriol trinitrate]",Effect on NMDA-evoked current,"[1]; 50 μM NMDA + 1 μM glycine, -60 mV, DTT 2 mM, NTG 500 μM, DTNB 500 μM, 2 min exposure, washout, FIG. 4",attenuated; also recorded: inhibited the responses
same,Effect on amplitude of NMDA evoked current following alkylation with NEM,[1]; after 1-5 mM NEM,neither NTG nor DTNB significantly affected the amplitude of NMDA evoked current
same,Effect on neuronal injury engendered by NMDA after exposure to DTT,[2],ameliorated neuronal injury
same,"Time to systemic tolerance, nitropaste or transdermal patch","[3]; no effect on systemic blood pressure, nitropaste dose escalated up to 3 inches, ""will develop in 18-24 hours or less""",18 to 24 h
same,Tolerance to undesired systemic effects,"[3]; systemic effects e.g. blood pressure drop, coronary artery dilation or headache",patients can be made tolerant to the undesired systemic effects of NTG
